This test concerns experimental cardiac infarct in rats. The experiment in a line: experimental cardiac infarct in rats: coronary artery closed for one hour, reperfused for two hours, size of infarct determined. Format: in vivo. Particulars: % of the risk area, mean±S.E.M., control 63.4±4.3%. Here is the method:
Male rats having a body weight of 280 to 410 g were classed into four groups and anaesthetized. The thorax was opened close to the sternum, a silk thread (Ethicon^R; 1.0 metric, 5-0) was placed around left coronary artery and the two loose ends of the thread were pulled through a small plastic tube.
For administration of substance, a catheter was placed into the left jugular vein. The systemic blood pressure was recorded in the left carotid artery using a pressure recorder (Combitrans^R, B. Braun Melsungen AG) and the ECG was registered using subcutaneous electrodes. After digital conversion, the data were registered in a computer and the ECG was evaluated in accordance with the guidelines of the Lambeth Convention (6. Walker M J A, Curtis M J, Hearse D J, Campbell R W F, Janse M J, Yellon D M, Cobbe S M, Cokes S J, Harness J B, Harron D W G, Higgins S J, Julian D G, Lab M J, Manning A S, Northover B J, Parraft J R, Riemersma R A, Rieva E, Russell D G, Sheridan D J, Winslow E, Woodward B: The Lambeth convention: Guidelines for the study of arrhythmias in ischemia, infarction and reperfusion. Cardiovasx. Res 1988; 22: 447-455).
Hoe 642 was dissolved in doubly distilled water and R56865 in tartaric acid (0.6%), dilution was carried out using doubly distilled water, and 4% of mannitol were added. […]

This note sets out measurements from patent US6348476B1, “Pharmaceutical combination preparation of an inhibitor of the sodium/hydrogen exchanger and a medicament for the treatment of cardiovascular diseases” (Aventis Pharma Deutschland GmbH, priority 1997, dated 2002).

The structures appear in SMILES notation.

On to `CC(C)c1ccc(C(=O)N=C(N)N)cc1S(C)(=O)=O.CS(=O)(=O)O` [Hoe 642, cariporide], for which, for the setting “10 mg/kg of body weight of Hoe 642 intravenously 5 min before occlusion, n=7”, the size of infarct is listed as 33.2±3.7%. For the compound `CN(c1nc2ccccc2s1)C1CCN(CCCCOc2ccc(F)cc2)CC1` [R56865, N-[1-[4-(4-fluorophenoxy)butyl]-4-piperdinyl]-N-methyl-2-benzothiazolamine], where the note is “3 mg/kg of body weight of R56865 intravenously 5 min before occlusion, n=8”, the size of infarct is on record as 38.9±3.1%.
